The source of these data is patent US10662203B2, “Pyrido[2,3-b]indole compounds for the treatment and prophylaxis of bacterial infection” (Hoffmann-La Roche Inc., priority 2017, dated 2020).

One data set concerns A. baumannii (ATCC17978). Description: 50% growth inhibitory concentration (IC50) determination assay. The format is cell-based. The note with it: Acinetobacter baumannii, ATCC17978, A. baumannii ATCC17978; Iso-Sensitest broth; 0.098 = detection limit. The essentials: (§1)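 Each strain, inoculated at ~5×10^5 CFU/mL in Iso-Sensitest broth, faces a two-fold compound series spanning 50 to 0.097 μM final concentration. Incubation proceeds at 35±2° C, and cell growth is tracked by absorbance at λ=600 nm every 20 minutes over 16 h.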

Data set [1] deals with K. pneumoniae (ATCC10031). Described as above. Particulars: Klebsiella pneumoniae, Iso-Sensitest broth, 0.098 = detection limit. Type of data set: cell-based. A digest of the protocol:
as §1

Another data set deals with S. aureus (ATCC29213). The data set is described as above. Type of data set: cell-based. The note with it: Staphylococcus aureus, Iso-Sensitest broth, 0.098 = detection limit. The essentials:
as §1

Data set [2] can be described thus: Lyophilisation solubility assay (LYSA). Type of data set: physicochemical. Particulars: phosphate buffer, pH 6.5, aqueous buffer, thermodynamic from solid, 0.05 M phosphate buffer, HPLC-UV. A digest of the protocol:
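Duplicate samples made from 10 mM DMSO stock. DMSO evaporated and the residue taken up in 0.05 M phosphate buffer, pH 6.5, stirred 1 h and shaken 2 h, then left overnight. Filtrate and its 1/10 dilution quantified by HPLC-UV.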

The nature of data set [3]: Cytotoxicity assay (HepG2, CellTiter-Blue cell viability). Type of data set: cell-based. The note with it: human; HepG2 cells, 3 days treatment; "*": the detection limit; read-out: CC50. A digest of the protocol:
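HepG2 cells (1.2×10^4 per well) exposed to compounds for 3 days; viability then read by CellTiter-Blue fluorescence after 3 h at 37 °C. CC50 from four-parameter logistic fit.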
In general terms: Alamar Blue is a resazurin reagent that responds to reducing activity.

Values after ≈ are worked out from the molar mass of the structure shown.

In general, IC50 refers to the point on the concentration scale where inhibition reaches its midpoint. Low readings indicate greater potency, high ones weaker potency. Broadly, the thermodynamic solubility is solubility found after equilibrating the solid with the medium. One may read the CC50 as the concentration at which the toxic effect on the cells reaches its halfway point. Regarding `CNc1cc(F)cc2c1[nH]c1ncc(-c3cnc4c(c3)c(=O)c(C(=O)O)cn4C)c(N3CCC[C@H]3CN(C)C)c12` [Example 1.162], the IC50 is 0.283 µM in the data set on A. baumannii (ATCC17978), less than 0.098 µM in data set [1] and 0.162 µM in the data set with S. aureus (ATCC29213). In data set [2], the thermodynamic solubility turned out to be 695 µg/mL (≈ 1280 µM). In addition, in data set [3], the CC50 at 3 days is 67600 nM.

Turning to `CNc1cc(F)c(F)c2c1[nH]c1ncc(-c3cnc4c(c3)c(=O)c(C(=O)O)cn4C)c(N3CC[C@@H](CN4CCCC4)C3)c12` [Example 1.173], the IC50 with A. baumannii (ATCC17978) is 0.216 µM; in data set [1], less than 0.098 µM; in the data set with S. aureus (ATCC29213) it was less than 0.098 µM. In data set [2], this compound had a solubility (thermodynamic) of 106 µg/mL (≈ 180 µM). Also, the CC50 at 3 days in data set [3] was 44900 nM.

Consider `CNc1cc(F)c(F)c2c1[nH]c1ncc(-c3cnc4c(c3)c(=O)c(C(=O)O)cn4NC)c(N3CCOC(CN(C)C)C3)c12` (centres unmarked) [Example 1.181], for which the concentration for half-maximal inhibition (IC50) with A. baumannii (ATCC17978) is 0.916 µM; in data set [1], less than 0.098 µM; in the data set on S. aureus (ATCC29213), 0.444 µM. Further, the thermodynamic solubility in data set [2] is 70 µg/mL (≈ 118 µM). The CC50 at 3 days in data set [3] is greater than 100000 nM.

With `CNc1cc(F)c(F)c2c1[nH]c1ncc(-c3cnc4c(c3)c(=O)c(C(=O)O)cn4C)c(N3CCC(N(C)C)CC3)c12` [Example 1.182], the IC50 with A. baumannii (ATCC17978) is 0.423 µM; in data set [1], less than 0.098 µM; with S. aureus (ATCC29213) it was 0.177 µM. Moreover, the solubility (thermodynamic) in data set [2] was 147 µg/mL (≈ 262 µM). The CC50 at 3 days in data set [3] was determined as 91700 nM.

As to `CNc1cc(F)cc2c1[nH]c1ncc(-c3cnc4c(c3)c(=O)c(C(=O)O)cn4C)c(N3CCN(C)CC3)c12` [Example 1.184], the IC50 in the data set with A. baumannii (ATCC17978) is 0.148 µM; in data set [1], less than 0.098 µM; with S. aureus (ATCC29213), less than 0.098 µM. Besides, in data set [2], the thermodynamic solubility turned out to be 52 µg/mL (≈ 101 µM). For the same compound, the CC50 at 3 days in data set [3] was 28700 nM.

For the compound `CNc1cc(F)c(F)c2c1[nH]c1ncc(-c3cnc4c(c3)c(=O)c(C(=O)O)cn4NC)c(N3CCCC(CN(C)C)C3)c12` (centres unmarked) [Example 1.186], the figures for the IC50 (in the data set with A. baumannii (ATCC17978); in data set [1]; in the data set with S. aureus (ATCC29213)) were 0.236 µM, less than 0.098 µM and less than 0.098 µM, respectively. Moreover, the thermodynamic solubility in data set [2] was found to be 104 µg/mL (≈ 176 µM). The CC50 at 3 days in data set [3] was 45600 nM.

On to `CNc1cc(F)cc2c1[nH]c1ncc(-c3cnc4c(c3)c(=O)c(C(=O)O)cn4C)c(N3CC[C@@H]4C(CCN4C)C3)c12` (some centres unmarked) [Example 1.188], for which the IC50 in the data set with A. baumannii (ATCC17978) is 0.307 µM; in data set [1], less than 0.098 µM; with S. aureus (ATCC29213), 0.232 µM. Further, the thermodynamic solubility in data set [2] worked out at 20 µg/mL (≈ 36 µM). The CC50 at 3 days in data set [3] is 51600 nM.

As to `CNc1cc(F)c(F)c2c1[nH]c1ncc(-c3cnc4c(c3)c(=O)c(C(=O)O)cn4NC)c(N3CCCC(N(C)C)C3)c12` (centres unmarked) [Example 1.191], the IC50 was 0.197 µM in the data set on A. baumannii (ATCC17978), less than 0.098 µM in data set [1] and 0.195 µM in the data set on S. aureus (ATCC29213). Besides, the solubility (thermodynamic) in data set [2] amounted to 181 µg/mL (≈ 314 µM). Also, the cytotoxic concentration (CC50) at 3 days in data set [3] was determined as 29100 nM.

Turning to `CNc1cc(F)c(F)c2c1[nH]c1ncc(-c3cnc4c(c3)c(=O)c(C(=O)O)cn4NC)c(N3CC4[C@H](CCN4C)C3)c12` (some centres unmarked) [Example 1.193], the IC50 with A. baumannii (ATCC17978) is 0.096 µM; in data set [1], less than 0.098 µM; with S. aureus (ATCC29213) it was less than 0.098 µM. The same compound had a solubility (thermodynamic) in data set [2] of 16 µg/mL (≈ 27.8 µM). The CC50 at 3 days in data set [3] was greater than 100000 nM.

For the compound `CNc1cc(F)c(F)c2c1[nH]c1ncc(-c3cnc4c(c3)c(=O)c(C(=O)O)cn4NC)c(N3CCC[C@H]3CN(C)C)c12` [Example 1.217], the IC50 in the data set with A. baumannii (ATCC17978) is 0.187 µM; in data set [1], less than 0.098 µM; in the data set with S. aureus (ATCC29213) it was 0.12 µM. The same compound showed a solubility (thermodynamic) in data set [2] of 190 µg/mL (≈ 330 µM). Further, in data set [3], the CC50 at 3 days came out at 27800 nM.

For the compound `CNc1cc(F)c(F)c2c1[nH]c1ncc(-c3cnc4c(c3)c(=O)c(C(=O)O)cn4C)c(N3CC4CN(C)C[C@@H]4C3)c12` (some centres unmarked) [Example 1.227], the IC50 in the data set with A. baumannii (ATCC17978) is 0.294 µM; in data set [1], less than 0.098 µM; with S. aureus (ATCC29213), 0.132 µM. The same compound showed a solubility (thermodynamic) in data set [2] of 12 µg/mL (≈ 21.4 µM). For the same compound, the CC50 at 3 days in data set [3] turned out to be 28000 nM.

Consider `CNc1cc(F)c(F)c2c1[nH]c1ncc(-c3cnc4c(c3)c(=O)c(C(=O)O)cn4C)c(N3CCC4(CCN(C)C4)C3)c12` (centres unmarked) [Example 1.229], for which the figures for the IC50 (in the data set on A. baumannii (ATCC17978); in data set [1]; in the data set on S. aureus (ATCC29213)) were 0.297 µM, less than 0.098 µM and less than 0.098 µM, respectively. This compound displayed a solubility (thermodynamic) in data set [2] of 12 µg/mL (≈ 20.9 µM). Further, the CC50 at 3 days in data set [3] worked out at 53100 nM.

Regarding `CNc1cc(F)c(F)c2c1[nH]c1ncc(-c3cnc4c(c3)c(=O)c(C(=O)O)cn4C)c(N3CCC4(CCCN4C)CC3)c12` [Example 1.230], the 50% inhibitory concentration (IC50) with A. baumannii (ATCC17978) was 0.376 µM; in data set [1] it was less than 0.098 µM; in the data set on S. aureus (ATCC29213), 0.099 µM. This compound also came in with a thermodynamic solubility in data set [2] of 19 µg/mL (≈ 32.3 µM). Moreover, the CC50 at 3 days in data set [3] was greater than 100000 nM.

Regarding `CNc1cc(F)c(F)c2c1[nH]c1ncc(-c3cnc4c(c3)c(=O)c(C(=O)O)cn4C)c(N3CC[C@H](N(C)C)C3)c12` [Example 1.254], the IC50 with A. baumannii (ATCC17978) was 0.164 µM; in data set [1], less than 0.098 µM; in the data set with S. aureus (ATCC29213), less than 0.098 µM. Also, the thermodynamic solubility in data set [2] was 23 µg/mL (≈ 42 µM). Moreover, the CC50 at 3 days in data set [3] is 36100 nM.

As to `CNc1cc(F)c(Cl)c2c1[nH]c1ncc(-c3cnc4c(c3)c(=O)c(C(=O)O)cn4NC)c(N3CC[C@H]4CN(C)CC43)c12` (some centres unmarked) [Example 1.268], the IC50 in the data set on A. baumannii (ATCC17978) is 0.065 µM; in data set [1], less than 0.098 µM; in the data set with S. aureus (ATCC29213), less than 0.098 µM. The thermodynamic solubility in data set [2] was found to be 24 µg/mL (≈ 40.6 µM). Moreover, the CC50 at 3 days in data set [3] came out at 33400 nM.

`CNc1cc(F)cc2c1[nH]c1ncc(-c3cnc4c(c3)c(=O)c(C(=O)O)cn4C)c(N3CCO[C@@H](CN(C)C)C3)c12` [Example 3.02A]: the half-inhibitory concentration (IC50) with A. baumannii (ATCC17978) was 0.268 µM; in data set [1] it was less than 0.098 µM; in the data set with S. aureus (ATCC29213), less than 0.098 µM. Also, in data set [2], the thermodynamic solubility amounted to 480 µg/mL (≈ 858 µM). In addition, the CC50 at 3 days in data set [3] is greater than 100000 nM.

For the compound `CNc1cc(F)cc2c1[nH]c1ncc(-c3cnc4c(c3)c(=O)c(C(=O)O)cn4C)c(N3CCO[C@H](CN(C)C)C3)c12` [Example 3.02B], the IC50 in the data set on A. baumannii (ATCC17978) is 0.444 µM; in data set [1] it was less than 0.098 µM; in the data set on S. aureus (ATCC29213), less than 0.098 µM. In addition, the thermodynamic solubility in data set [2] was 455 µg/mL (≈ 813 µM). The 50% cytotoxic concentration (CC50) at 3 days in data set [3] was greater than 100000 nM.

`CNc1cc(F)c(F)c2c1[nH]c1ncc(-c3cnc4c(c3)c(=O)c(C(=O)O)cn4C)c(N3CCC[C@@H](N(C)C)C3)c12` [Example 3.06A]: the half-maximal inhibitory concentration (IC50) was 0.102 µM in the data set with A. baumannii (ATCC17978), less than 0.098 µM in data set [1] and less than 0.098 µM in the data set on S. aureus (ATCC29213). In addition, in data set [2], the solubility (thermodynamic) came out at 66 µg/mL (≈ 118 µM). In data set [3], the CC50 at 3 days came out at 52500 nM.

For `CNc1cc(F)c(F)c2c1[nH]c1ncc(-c3cnc4c(c3)c(=O)c(C(=O)O)cn4C)c(N3CCC[C@H](N(C)C)C3)c12` [Example 3.06B], the figures for the IC50 (in the data set with A. baumannii (ATCC17978); in data set [1]; with S. aureus (ATCC29213)) were 0.176 µM, less than 0.098 µM and less than 0.098 µM, respectively. For the same compound, the thermodynamic solubility in data set [2] is 85 µg/mL (≈ 151 µM). Moreover, the CC50 at 3 days in data set [3] came to 40200 nM.
